Source: US8952024B2, “Herbicidal pyrimidone derivatives” (E I du Pont de Nemours and Company, priority 2009, dated 2015)

Key:
Type in all cases: in vivo
[1] = test system: giant foxtail (Setaria faberii); assay: Test B pre-/postemergence plant response; conditions: Postemergence
Outline: (§1)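 Visually scored on a 0 to 100 scale after 13 to 15 days in greenhouse versus controls. Treatments were preemergence on seeded loam/sand soil and postemergence on 1- to 4-leaf plants.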

[2] = test system: pigweed (Amaranthus retroflexus); assay: Test B pre-/postemergence plant response; conditions: Postemergence
Outline: as §1

[3] = test system: velvetleaf (Abutilon theophrasti); assay: Test B pre-/postemergence plant response; conditions: Postemergence
Outline: as §1

[4] = test system: green foxtail (Setaria viridis); assay: Test B pre-/postemergence plant response; conditions: Postemergence
Outline: as §1

[5] = test system: yellow nutsedge (Cyperus esculentus); assay: Test B pre-/postemergence plant response; conditions: Postemergence
Outline: as §1

corn (Zea mays) = assay: Test B pre-/postemergence plant response; conditions: Postemergence
Outline: as §1

soybean (Glycine max) = assay: Test B pre-/postemergence plant response; conditions: Postemergence
Outline: as §1

[6] = test system: lambsquarters (Chenopodium album); assay: Test B pre-/postemergence plant response; conditions: Postemergence
Outline: as §1

[7] = test system: johnsongrass (Sorghum halepense); assay: Test B pre-/postemergence plant response; conditions: Postemergence
Outline: as §1

[8] = test system: goosegrass (Eleusine indica); assay: Test B pre-/postemergence plant response; conditions: Postemergence
Outline: as §1

[9] = test system: canarygrass (Phalaris minor); assay: Test B postemergence plant response; conditions: Postemergence
Outline: (§2)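 Visual ratings from 0 (no effect) to 100 (complete control), made against controls 13–15 days after treatment, kept in a greenhouse. Compounds were applied postemergence to potted plants at the 1- to 4-leaf stage (2–18 cm).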

[10] = test system: winter barley (Hordeum vulgare); assay: Test B postemergence plant response; conditions: for Plant response rating, Barley: Postemergence
Outline: as §2

[11] = test system: windgrass (Apera spica-venti); assay: Test B postemergence plant response; conditions: Postemergence
Outline: as §2

[12] = test system: chickweed (Stellaria media); assay: Test B postemergence plant response; conditions: Postemergence
Outline: as §2

[13] = 31 g ai/ha, 0 to 100 scale (0 no effect, 100 complete control)
[14] = 125 g ai/ha, scale 0 to 100 (0 no effect, 100 complete control)
[15] = 250 g ai/ha, scale 0 to 100 (0 no effect, 100 complete control), 13 to 15 days

## O=C1CCCC(O)=C1C(=O)c1cnc(-c2cc(F)cc(F)c2)n(C2CCCCC2)c1=O [Compound 181]
[1]; [13]
  Plant response rating, Foxtail, Giant: 98
[1]; [14]
  Plant response rating, Foxtail, Giant: 100
[1]; [15]
  Plant response rating, Foxtail, Giant: 100
[2]; [13]
  Plant response rating, Pigweed: 100
[2]; [14]
  Plant response rating, Pigweed: 100
[2]; [15]
  Plant response rating, Pigweed: 100
[3]; [13]
  Plant response rating, Velvetleaf: 100
[3]; [14]
  Plant response rating, Velvetleaf: 100
[3]; [15]
  Plant response rating, Velvetleaf: 100
[4]; [13]
  Plant response rating, Foxtail, Green: 70
[4]; [14]
  Plant response rating, Foxtail, Green: 95
[4]; [15]
  Plant response rating, Foxtail, Green: 98
[5]; [13]
  Plant response rating, Nutsedge, Yellow: 60
[5]; [14]
  Plant response rating, Nutsedge, Yellow: 80
[5]; [15]
  Plant response rating, Nutsedge, Yellow: 85
Corn (Zea mays); [13]
  Plant response rating, Corn: 70
Corn (Zea mays); [14]
  Plant response rating, Corn: 95
Corn (Zea mays); [15]
  Plant response rating, Corn: 95
Soybean (Glycine max); [13]
  Plant response rating, Soybean: 100
Soybean (Glycine max); [14]
  Plant response rating, Soybean: 100
Soybean (Glycine max); [15]
  Plant response rating, Soybean: 100
[6]; [13]
  Plant response rating, Lambsquarters: 100
[6]; [14]
  Plant response rating, Lambsquarters: 100
[6]; [15]
  Plant response rating, Lambsquarters: 100
[7]; [13]
  Plant response rating, Johnsongrass: 100
[7]; [14]
  Plant response rating, Johnsongrass: 100
[7]; [15]
  Plant response rating, Johnsongrass: 100
[8]; [13]
  Plant response rating, Goosegrass: 95
[8]; [14]
  Plant response rating, Goosegrass: 100
[8]; [15]
  Plant response rating, Goosegrass: 100
[9]; [13]
  Plant response rating, Canarygrass: 50
[9]; [14]
  Plant response rating, Canarygrass: 85
[9]; [15]
  Plant response rating, Canarygrass: 90
[10]; 62 g ai/ha, postemergence, 0 is no effect, 100 is complete control, 13 to 15 days
  Barley plant response rating (0 to 100 scale): 40
[10]; [13]
  Plant response rating, Barley: 5
[10]; [14]
  Plant response rating, Barley: 50
[10]; [15]
  Plant response rating, Barley: 55
[11]; [13]
  Plant response rating, Windgrass: 40
[11]; [14]
  Plant response rating, Windgrass: 60
[11]; [15]
  Plant response rating, Windgrass: 65
[12]; [13]
  Plant response rating, Chickweed: 100
[12]; [14]
  Plant response rating, Chickweed: 100
[12]; [15]
  Plant response rating, Chickweed: 100
